Source: patent US6455570B1, “Polypyrrolinone based inhibitors of matrix metalloproteases” (The Trustees of the University of Pennsylvania, priority 2000, dated 2002)

Legend:
Format in all cases: biochemical
[1] = molecular target: membrane type 2 matrix metalloprotease (MMP-15) (Homo sapiens, UniProt P51511); assay: metalloprotease activity assay by a published procedure (J. Duan, WO/0059285), membrane type 2 MMP; conditions: read-out: Ki, inhibitory activity against membrane type 2 matrix metalloprotease (MMP-15)
Description: (§1) Compounds of the present invention were assayed for metalloprotease activity by a published procedure (see, for example, J. Duan, WO/0059285). […] (Whittaker, M. et al. Chem. Rev. 1999 99:2735; Borkakoti, N. et al. Struct. Biol. 1994 1:106)

matrilysin (MMP-7) = molecular target: T1, matrilysin (MMP-7) (Homo sapiens, UniProt P09237); assay: metalloprotease activity assay by a published procedure (J. Duan, WO/0059285), matrilysin; conditions: read-out: Ki, inhibitory activity against matrilysin (MMP-7)
T1 sequence (P09237 95-267): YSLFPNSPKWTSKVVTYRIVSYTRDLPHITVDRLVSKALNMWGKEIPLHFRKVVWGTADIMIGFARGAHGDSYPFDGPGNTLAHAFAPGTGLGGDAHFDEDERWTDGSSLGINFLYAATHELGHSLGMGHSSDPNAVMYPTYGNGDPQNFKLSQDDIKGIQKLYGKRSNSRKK
Description: as §1

gelatinase (MMP-2) = molecular target: T2, gelatinase (MMP-2) (Homo sapiens, UniProt P08253); assay: metalloprotease activity assay by a published procedure (J. Duan, WO/0059285), gelatinase; conditions: read-out: Ki, inhibitory activity against gelatinase (MMP-2)
T2 sequence (P08253 110-660): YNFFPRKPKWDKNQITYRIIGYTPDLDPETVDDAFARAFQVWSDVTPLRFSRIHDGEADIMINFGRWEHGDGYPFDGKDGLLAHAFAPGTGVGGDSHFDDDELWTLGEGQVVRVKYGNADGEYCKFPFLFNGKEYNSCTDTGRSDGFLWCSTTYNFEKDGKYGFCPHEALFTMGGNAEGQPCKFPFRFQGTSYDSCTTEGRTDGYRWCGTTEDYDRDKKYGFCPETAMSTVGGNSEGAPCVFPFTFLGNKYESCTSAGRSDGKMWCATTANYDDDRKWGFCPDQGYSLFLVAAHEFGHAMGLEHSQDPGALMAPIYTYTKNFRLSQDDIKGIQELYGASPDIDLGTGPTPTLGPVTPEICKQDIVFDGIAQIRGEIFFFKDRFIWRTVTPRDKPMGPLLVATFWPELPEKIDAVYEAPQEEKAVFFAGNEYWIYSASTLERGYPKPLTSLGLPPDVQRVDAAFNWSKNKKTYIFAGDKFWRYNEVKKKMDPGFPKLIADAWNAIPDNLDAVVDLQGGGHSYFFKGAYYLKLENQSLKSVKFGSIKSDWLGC
Description: as §1

membrane type 2 matrix metalloprotease (MMP-15), sequence (P51511 132-669, species assumed): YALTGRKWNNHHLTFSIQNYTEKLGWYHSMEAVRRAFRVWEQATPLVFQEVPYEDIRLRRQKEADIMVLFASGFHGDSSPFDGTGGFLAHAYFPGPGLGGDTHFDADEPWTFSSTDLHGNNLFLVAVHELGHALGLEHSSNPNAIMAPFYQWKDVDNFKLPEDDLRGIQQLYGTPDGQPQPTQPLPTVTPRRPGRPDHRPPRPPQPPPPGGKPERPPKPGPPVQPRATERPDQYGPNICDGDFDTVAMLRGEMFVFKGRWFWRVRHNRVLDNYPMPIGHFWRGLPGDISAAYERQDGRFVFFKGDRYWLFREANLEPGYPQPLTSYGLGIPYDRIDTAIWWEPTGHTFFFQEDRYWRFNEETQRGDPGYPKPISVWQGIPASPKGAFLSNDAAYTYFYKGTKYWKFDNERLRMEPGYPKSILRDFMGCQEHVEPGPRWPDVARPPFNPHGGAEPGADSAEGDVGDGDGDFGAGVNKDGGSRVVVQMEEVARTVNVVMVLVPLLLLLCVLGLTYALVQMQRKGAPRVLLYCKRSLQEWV

- Ki [1]: 6.8 µM
- Ki (matrilysin (MMP-7)): 6.4 µM
- Ki (gelatinase (MMP-2)): 2.9 µM
SMILES: CCOC(=O)C(C)C1=CNC(CC(C)C)(C2=CNC(CC(=O)NO)(CC(C)C)C2=O)C1=O (single isomer, unassigned; (-)) [(−)-1a, Bispyrrolinone Hydroxamic Acid]
